Legend:
Format in all cases: in vivo
[1] = tested on: velvetleaf (Abutilon theophrasti): ABUTH; experiment: Test Example 1 pre-emergence herbicidal activity, ABUTH; conditions: Rate 63 g a.i./ha, visually observed 20th to 23rd day after application
How it was run: (§1)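 Visual scoring 20–23 days after treatment gives percent growth control, where 0 equals untreated and 100 means complete kill. Treatment: pre-emergence spray of formulated compound in 500 L/ha water, one day after sowing in upland soil.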

[2] = tested on: redroot pigweed (Amaranthus retroflexus L.), AMARE; experiment: Test Example 2 post-emergence (foliage treatment) herbicidal activity, AMARE; conditions: 63 g a.i./ha
How it was run: (§2)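 Foliar spray of formulated compound (500 L/ha dilution water, 0.1% v/v spreader) onto young potted plants at defined leaf stages. Scored 0-100% by visual inspection 20-23 d post-spray.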

[3] = tested on: prickly sida (Sida spinosa L.), SIDSP; experiment: Test Example 2 post-emergence (foliage treatment) herbicidal activity, SIDSP; conditions: 63 g a.i./ha
How it was run: (§3)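 A small sprayer delivered the diluted WP or EC formulation (500 L/ha water, 0.1% v/v spreader) over emerged seedlings in upland soil pots. Damage relative to untreated plants was graded visually from 0 to 100% three weeks or so later (days 20-23).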

[4] = tested on: japanese bulrush (Scirpus juncoides: SCPJO); experiment: Test Example 3 water application herbicidal activity (paddy), SCPJO; conditions: 63 g a.i./ha, water application under submerged condition at 0.5 leaf stage, visually observed 14th day after application; 0 = untreated control, 100 = complete kill
How it was run: (§4)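 Submerged application in flooded paddy soil (3–4 cm water); weeds treated at 0.5-leaf stage, transplanted rice 4 d after transplanting. Scored visually as % growth control: weeds at 14 d, rice at 21 d.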

[5] = tested on: green foxtail (Setaria viridis L.), SETVI; experiment: Test Example 2 post-emergence (foliage treatment) herbicidal activity, SETVI; conditions: 63 g a.i./ha
How it was run: as §3

[6] = tested on: crabgrass (Digitaria sanguinalis L.): DIGSA; experiment: Test Example 1 pre-emergence herbicidal activity, DIGSA; conditions: Rate 63 g a.i./ha, visually observed 20th to 23rd day after application
How it was run: as §1

[7] = tested on: prickly sida (Sida spinosa L.): SEDSP; experiment: Test Example 1 pre-emergence herbicidal activity, SIDSP; conditions: Rate 63 g a.i./ha, visually observed 20th to 23rd day after application
How it was run: as §1

[8] = tested on: rice (Oryza sativa L.), ORYSA; experiment: Test Example 2 post-emergence (foliage treatment) herbicidal activity, ORYSA; conditions: 63 g a.i./ha
How it was run: as §2

[9] = tested on: japanese ribbon wapato (Sagittaria pygmaea: SA GPY); experiment: Test Example 3 water application herbicidal activity (paddy), SAGPY; conditions: 63 g a.i./ha, water application under submerged condition, tubers planted, visually observed 14th day after application; 0 = untreated control, 100 = complete kill
How it was run: as §4

[10] = tested on: soybean (Glycine max Merr.), GLXMA; experiment: Test Example 2 post-emergence (foliage treatment) herbicidal activity, GLXMA; conditions: 63 g a.i./ha
How it was run: as §3

[11] = tested on: velvetleaf (Abutilon theophrasti), ABUTH; experiment: Test Example 2 post-emergence (foliage treatment) herbicidal activity, ABUTH; conditions: 63 g a.i./ha
How it was run: as §3

[12] = tested on: wheat (Triticum aestivum L.): TRZAX; experiment: Test Example 1 pre-emergence herbicidal activity, TRZAX; conditions: Rate 63 g a.i./ha, visually observed 20th to 23rd day after application
How it was run: as §1

[13] = tested on: barnyardgrass (Echinochloa crus-galli L.), ECHCG; experiment: Test Example 2 post-emergence (foliage treatment) herbicidal activity, ECHCG; conditions: 63 g a.i./ha
How it was run: as §2

[14] = tested on: corn (Zea mays L.), ZEAMX; experiment: Test Example 2 post-emergence (foliage treatment) herbicidal activity, ZEAMX; conditions: 63 g a.i./ha
How it was run: as §3

[15] = tested on: crabgrass (Digitaria sanguinalis L.), DIGSA; experiment: Test Example 2 post-emergence (foliage treatment) herbicidal activity, DIGSA; conditions: 63 g a.i./ha
How it was run: as §2

[16] = tested on: rice (Oryza sativa L.: ORYSA); experiment: Test Example 3 water application herbicidal activity (paddy), transplanted rice ORYSA; conditions: 63 g a.i./ha, water application 4th day after transplantation of 2 leaf stage rice, visually observed 21st day after application; 0 = untreated control, 100 = complete kill
How it was run: as §4

[17] = tested on: barnyardgrass (Echinochiloa oryzicola: ECHOR); experiment: Test Example 3 water application herbicidal activity (paddy), ECHOR; conditions: 63 g a.i./ha, water application under submerged condition at 0.5 leaf stage, visually observed 14th day after application; 0 = untreated control, 100 = complete kill
How it was run: as §4

[18] = tested on: soybean (Glycine max Merr.): GLXMA; experiment: Test Example 1 pre-emergence herbicidal activity, GLXMA; conditions: Rate 63 g a.i./ha, visually observed 20th to 23rd day after application
How it was run: as §1

[19] = tested on: green foxtail (Setaria viridis L.): SETVI; experiment: Test Example 1 pre-emergence herbicidal activity, SETVI; conditions: Rate 63 g a.i./ha, visually observed 20th to 23rd day after application
How it was run: as §1

[20] = tested on: wheat (Triticum aestivum L.), TRZAX; experiment: Test Example 2 post-emergence (foliage treatment) herbicidal activity, TRZAX; conditions: 63 g a.i./ha
How it was run: as §3

[21] = tested on: rice (Oryza sativa L.): ORYSA; experiment: Test Example 1 pre-emergence herbicidal activity, ORYSA; conditions: Rate 63 g a.i./ha, visually observed 20th to 23rd day after application
How it was run: as §1

[22] = tested on: redroot pigweed (Amaranthus retroflexus L.): AMARE; experiment: Test Example 1 pre-emergence herbicidal activity, AMARE; conditions: Rate 63 g a.i./ha, visually observed 20th to 23rd day after application
How it was run: as §1

[23] = tested on: corn (Zea mays L.): ZEAMX; experiment: Test Example 1 pre-emergence herbicidal activity, ZEAMX; conditions: Rate 63 g a.i./ha, visually observed 20th to 23rd day after application
How it was run: as §1

[24] = tested on: barnyardgrass (Echinochloa crus-galli L.): ECHCG; experiment: Test Example 1 pre-emergence herbicidal activity, ECHCG; conditions: Rate 63 g a.i./ha, visually observed 20th to 23rd day after application
How it was run: as §1

SMILES | Pre-emergence Herbicidal Activity ABUTH (growth controlling degree) [1] [%] | growth controlling degree, AMARE [2] [%] | growth controlling degree, SIDSP [3] [%] | growth controlling degrees (%) SCPJO [4] [%] | growth controlling degree, SETVI [5] [%] | Pre-emergence Herbicidal Activity DIGSP (growth controlling degree) [6] [%] | Pre-emergence Herbicidal Activity SIDSP (growth controlling degree) [7] [%] | growth controlling degree, ORYSA [8] [%] | growth controlling degrees (%) SAGPY [9] [%] | growth controlling degree, GLXMA [10] [%] | growth controlling degree, ABUTH [11] [%] | Pre-emergence Herbicidal Activity TRZAX (growth controlling degree) [12] [%] | growth controlling degree, ECHCO [13] [%] | growth controlling degree, ZEAMX [14] [%] | growth controlling degree, DIGSP [15] [%] | growth controlling degrees (%) ORYSA [16] [%] | growth controlling degrees (%) ECHOR [17] [%] | Pre-emergence Herbicidal Activity GLXMA (growth controlling degree) [18] [%] | Pre-emergence Herbicidal Activity SETVI (growth controlling degree) [19] [%] | growth controlling degree, TRZAX [20] [%] | also measured
COc1c(Cl)cc(F)c(-c2nn(C)c(OC(F)F)c2Cl)c1NC(=O)c1ccccc1C(F)(F)F [Compound 1-25] | 100 | 100 | 100 | 95 | 100 | 98 | 100 | 90 | 100 | 98 | 100 | 0 | 98 | 90 | 100 | 60 | 98 | 0 | 95 | 40 | Pre-emergence Herbicidal Activity ORYSA (growth controlling degree) [21]: 40%; Pre-emergence Herbicidal Activity AMARE (growth controlling degree) [22]: 100%; Pre-emergence Herbicidal Activity ZEAMX (growth controlling degree) [23]: 0%; Pre-emergence Herbicidal Activity ECHCG (growth controlling degree) [24]: 60%
COc1c(Cl)cc(F)c(-c2nn(C)c(OC(F)F)c2Cl)c1NC(=O)c1cccc(Cl)c1 [Compound 1-26] | 100 | 100 | 100 | 70 | 100 | 98 | 70 | 80 | 100 | 70 | 100 | 10 | 95 | 40 | 60 | 60 | 100 | 10 | 100 | 30 | Pre-emergence Herbicidal Activity ORYSA (growth controlling degree) [21]: 30%; Pre-emergence Herbicidal Activity AMARE (growth controlling degree) [22]: 100%; Pre-emergence Herbicidal Activity ZEAMX (growth controlling degree) [23]: 10%; Pre-emergence Herbicidal Activity ECHCG (growth controlling degree) [24]: 70%
COc1c(Cl)cc(F)c(-c2nn(C)c(OC(F)F)c2Cl)c1NC(=O)c1cccc(Br)c1 [Compound 1-27] | 70 | 100 | 70 | 70 | 100 | 100 | 80 | 80 | 98 | 70 | 100 | 0 | 100 | 60 | 100 | 50 | 100 | 20 | 80 | 30 | Pre-emergence Herbicidal Activity ORYSA (growth controlling degree) [21]: 20%; Pre-emergence Herbicidal Activity AMARE (growth controlling degree) [22]: 100%; Pre-emergence Herbicidal Activity ZEAMX (growth controlling degree) [23]: 0%; Pre-emergence Herbicidal Activity ECHCG (growth controlling degree) [24]: 30%
